According to patent US12655113B2, “Biphenyl compounds as SOCE modulators, compositions and uses thereof” (Università degli Studi del Piemonte Orientale “Amedeo …, priority 2020, dated 2026):

What was measured:
[1] = tested on: tBHQ-induced calcium influx into Hek cells (SOCE); test: Store-operated calcium entry (SOCE) by Fura-2 Ca2+ measurements in Hek cells; type: cell-based, Human; conditions: for Calcium response to SOCE-modulators (regulation of SOCE): FIG. 2A, HEK cells, stores depleted with 50 μM tBHQ, compound added with 2 mM Ca2+
[2] = tested on: SOCE in myotubes from KI-STIM1I115F mice (STIM1 mutated protein); test: Pharmacological modulation of SOCE in myotubes from KI-STIM1 I115F mice; type: cell-based, mouse; conditions: FIG. 4
Procedure: Wild-type and KI-STIM1^I115F primary myoblast were obtained from the following muscles: gastrocnemius, tibialis anterior, quadriceps femoris, extensor digitorum longus, soleus, biceps brachii and diaphragm. Each muscle was placed in a 60 mm dish in phosphate-buffered saline (PBS), removed from the tendon and separated longitudinally and subsequently chopped into smaller pieces. The small fragments were incubated with Pronase® (Protease, Streptomyces griseus, Calbiochem®, 25 KU) for 1 hour at 37° C. in shaking and neutralized with Dulbecco's Modified Eagle's Medium (DMEM, Sigma-Aldrich, Italy), supplemented with 10% heat-inactivated FCS (Gibco, Italy), L-glutamine 50 mg/mL (Sigma-Aldrich, Italy), penicillin 10 U/mL and streptomycin […] (Sigma-Aldrich, Italy), and 1% chicken embryo extract (Sigma-Aldrich, Italy). Tissues were then chopped into smaller pieces passing through pipets of 10 and 5 mL and the supernatant obtained was filtered in 40 μm strainer and centrifuge at RT for 10 minutes at 1200 rpm. […]
Myotubes were generated from 4 animals in each condition. We also analysed whether SOCE in WT myotubes was modified during the lifespan of these animals. […]

[3] = tested on: SOCE in myotubes from mdx mice; test: Pharmacological modulation of SOCE in myotubes of DMD mouse model (mdx); type: cell-based; conditions: FIG. 6; for over-activation of SOCE in DMD mouse model (DMD mutated protein): myotubes from mdx mice
Procedure: Myotubes were generated from 4 animals in each condition. We analysed whether SOCE is increased in myotubes from mxd mice as compared to myotubes from WT mice. To do this, we employed a classical protocol for Ca^2+-entry, in which stores are depleted with tBHQ in a Ca^2+-free buffer and after 10 minutes cells are perfused in a Ca^2+-containing solution (2 mM).
Myotubes from 4 wild type (WT) and 4 mdx mice were loaded with 5 μM Fura-2 AM and placed in an extracellular solution containing 0 mM Ca^2+. Stores were depleted with 50 μM tBHQ and after 10 minutes cells are perfused in a Ca^2+-containing solution (2 mM) in presence or absence of the selected compound (3-(1-(3-methoxy-[1,1-biphenyl]-4-yl)-1H-1,2,3-triazol-4-yl)benzoic acid).

[4] = Homo sapiens, HEK293, Hek cells, 3 μM
[5] = Homo sapiens, HEK293, Hek cells

## COc1ccc(OC)c(-c2ccc(-n3cc(-c4cccc(C(=O)O)c4)nn3)cc2)c1 [Compound 24, 3-(1-(2′,5′-dimethoxy-[1,1′-biphenyl]-4-yl)-1H-1,2,3-triazol-4-yl)benzoic acid]
[1]; [4]
  inhibition at 3 µM: 85.8 ± 6.5%

## COc1cccc(-c2ccc(-c3cn(-c4cccc(C(=O)O)c4)nn3)cc2)c1OC [Compound 42, 3-(4-(2′,3′-dimethoxy-[1,1′-biphenyl]-4-yl)-1H-1,2,3-triazol-1-yl)benzoic acid]
[1]; [4]
  inhibition at 3 µM: 93.2 ± 5.1%

## COc1cc(OC)cc(-c2ccc(-c3cn(-c4cccc(C(=O)O)c4)nn3)cc2)c1 [Compound 38, 3-(4-(3′,5′-dimethoxy-[1,1′-biphenyl]-4-yl)-1H-1,2,3-triazol-1-yl)benzoic acid]
[1]; [5]
  inhibition at 10 µM: 86.2 ± 4.2%

## COc1cccc(-c2ccc(-n3cc(-c4cccc(C(=O)O)c4)nn3)cc2)c1 [Compound 13, 3-(1-(3′-Methoxy-[1,1′-biphenyl]-4-yl)-1H-1,2,3-triazol-4-yl)benzoic acid]
[1]
  Calcium response to SOCE-modulators (regulation of SOCE): negatively regulate SOCE
[1]; [4]
  inhibition at 3 µM: 85 ± 9%
[2]
  over-activation of STIM1 mutated protein: able to revert the over-activation of STIM1 mutated protein
[3]; 10 μM
  SOCE in myotubes from mdx mice: impairs SOCE
[3]
  over-activation of SOCE in DMD mouse model (DMD mutated protein): able to revert the over-activation of DMD mutated protein

## COc1ccccc1-c1ccc(-c2cn(-c3cccc(C(=O)O)c3)nn2)cc1 [Compound 35, 3-(4-(2′-methoxy-[1,1′-biphenyl]-4-yl)-1H-1,2,3-triazol-1-yl)benzoic acid]
[1]; [5]
  inhibition at 10 µM: 59.6 ± 5.43%

## COc1ccccc1-c1ccc(-n2cc(-c3cccc(C(=O)O)c3)nn2)cc1 [Compound 12, 3-(1-(2′-methoxy-[1,1′-biphenyl]-4-yl)-1H-1,2,3-triazol-4-yl)benzoic acid]
[1]; [5]
  inhibition at 10 µM: 47.2 ± 7.2%

## COc1cc(OC)cc(-c2ccc(-n3cc(-c4cccc(C(=O)O)c4)nn3)cc2)c1 [Compound 16, 3-(1-(3′,5′-dimethoxy-[1,1′-biphenyl]-4-yl)-1H-1,2,3-triazol-4-yl)benzoic acid]
[1]; [5]
  inhibition at 10 µM: 77.4 ± 4.7%

## COc1cccc(-c2ccc(-c3cn(-c4cccc(C(=O)O)c4)nn3)cc2)c1 [Compound 36, 3-(4-(3′-methoxy-[1,1′-biphenyl]-4-yl)-1H-1,2,3-triazol-1-yl)benzoic acid]
[1]; [5]
  inhibition at 10 µM: 87 ± 1.1%

## O=C(O)c1cccc(-c2cn(-c3ccc(-c4ccc5c(c4)OCO5)cc3)nn2)c1 [Compound 17, 3-(1-(4-(benzo[d][1,3]dioxol-5-yl)phenyl)-1H-1,2,3-triazol-4-yl)benzoic acid]
[1]; [5]
  inhibition at 10 µM: 37.3 ± 4.2%

## COc1ccc(-c2ccc(-c3cn(-c4cccc(C(=O)O)c4)nn3)cc2)c(OC)c1 [Compound 37, 3-(4-(2′,4′-dimethoxy-[1,1′-biphenyl]-4-yl)-1H-1,2,3-triazol-1-yl)benzoic acid]
[1]; [5]
  inhibition at 10 µM: 77.1 ± 0.9%

## COc1ccc(OC)c(-c2ccc(-n3cc(-c4ccncc4F)nn3)cc2)c1 [Compound 26, 4-(1-(2′,5′-dimethoxy-[1,1′-biphenyl]-4-yl)-1H-1,2,3-triazol-4-yl)-3-fluoropyridine]
[1]
  Calcium response to SOCE-modulators (regulation of SOCE): no activity

## COc1ccc(OC)c(-c2ccc(-c3cn(-c4cccc(C(=O)O)c4)nn3)cc2)c1 [Compound 46, 3-(4-(2′,5′-dimethoxy-[1,1′-biphenyl]-4-yl)-1H-1,2,3-triazol-1-yl)benzoic acid]
[1]; [4]
  inhibition at 3 µM: 78.7 ± 3.8%
[1]; [5]
  inhibition at 10 µM: 87.8 ± 2.9%

## COc1ccc(-c2ccc(-n3cc(-c4cccc(C(=O)O)c4)nn3)cc2)c(OC)c1 [Compound 15, 3-(1-(2′,4′-dimethoxy-[1,1′-biphenyl]-4-yl)-1H-1,2,3-triazol-4-yl)benzoic acid]
[1]; [5]
  inhibition at 10 µM: 68.1 ± 4.2%

## CSc1cccc(-c2ccc(-n3cc(-c4cccc(C(=O)O)c4)nn3)cc2)c1 [Compound 11, 3-(1-(3′-(methylthio)-[1,1′-biphenyl]-4-yl)-1H-1,2,3-triazol-4-yl)benzoic acid]
[1]; [5]
  inhibition at 10 µM: 72.6 ± 13.6%

## O=C(O)c1cccc(-c2cn(-c3ccc(-c4ccc5c(c4)OCCO5)cc3)nn2)c1 [Compound 18, 3-(1-(4-(2,3-dihydrobenzo[b][1,4]dioxin-6-yl)phenyl)-1H-1,2,3-triazol-4-yl)benzoic acid]
[1]
  Calcium response to SOCE-modulators (regulation of SOCE): negatively regulate SOCE
[1]; [5]
  inhibition at 10 µM: 82.7 ± 4%
[2]
  over-activation of STIM1 mutated protein: able to revert the over-activation of STIM1 mutated proteins
[3]
  over-activation of SOCE in DMD mouse model (DMD mutated protein): able to revert the over-activation of SOCE in DMD mouse model

## COc1cccc(OC)c1-c1ccc(-c2cn(-c3cccc(C(=O)O)c3)nn2)cc1 [Compound 44, 3-(4-(2′,6′-dimethoxy-[1,1′-biphenyl]-4-yl)-1H-1,2,3-triazol-1-yl)benzoic acid]
[1]; Homo sapiens, HEK293, Hek cells, 3 μM, read-out: Residual activity of SOCE
  activity at 3 µM: 122.8 ± 0.89%

## COc1cccc(-c2ccc(-n3cc(-c4cccc(C(=O)O)c4)nn3)cc2)c1OC [Compound 20, 3-(1-(2′,3′-dimethoxy-[1,1′-biphenyl]-4-yl)-1H-1,2,3-triazol-4-yl)benzoic acid]
[1]
  Calcium response to SOCE-modulators (regulation of SOCE): negatively regulate SOCE

## COc1ccc(OC)c(-c2ccc(-n3cc(-c4ccnc(C(=O)O)c4)nn3)cc2)c1 [Compound 25, 4-(1-(2′,5′-dimethoxy-[1,1′-biphenyl]-4-yl)-1H-1,2,3-triazol-4-yl)picolinic acid]
[1]; [5]
  inhibition at 10 µM: 79.9 ± 4.1%

## COC(=O)c1cc(-n2cc(-c3ccc(-c4cc(OC)ccc4OC)cc3)nn2)ccn1 [Compound 47, methyl 4-(4-(2′,5′-dimethoxy-[1,1′-biphenyl]-4-yl)-1H-1,2,3-triazol-1-yl)picolinate]
[1]; [5]
  inhibition at 10 µM: 73.5 ± 1.4%
